Assay results published in patent publication US6492330B1, “Antiangiogenic drugs” (National Institute of Immunology, priority 1996, dated 2002).
Non-standard residues stand in square brackets, D forms with d. No end group written: not given here. Aib = CC(C)(N)C(=O)O

Key:
Assay type in all cases: cell-based
[1] = tested on: ECV.304 cells; assay: MTT assay, inhibition of proliferation of endothelial cells ECV.304; conditions: 72 hours (Table 2)
Experimental: 150 μl of medium was added to the wells of a 96-well tissue culture plate (Nunc, Denmark) followed by 30 μl of cell suspension. The plate was left in incubator (37° C., 5% CO2) overnight. Each of the seven peptides of the combination MuJ-7 were added at three molar concentrations of 10^−7M, 10^−8M and 10^−9M. 20 μl of MuJ-7 at three concentrations of N/10, N and 10N was added to marked wells of the 96-well plate. The value of N for each of the individual peptides was 10^−8M for VIP2, BOM1, SP1, VIP3, and SOM2 and 10^−7M for VIP1, and 10^−9M for SOM1. Each concentration was plated in triplicate. 20 μl of medium alone was added to control wells while wells without cells served as blanks. A total volume of 200 μl was ensured in each well and the plate was left in an incubator (37° C., 5% CO2). After 72 hours of incubation an MTT assay was performed and percentage inhibition in proliferation of treated cells was calculated with respect to control cells.
150 μl of medium was added to the wells of a 96-well tissue culture plate (Nunc, Denmark) followed by 30 μl of cell suspension. The plate was left in incubator (37° C., 5% CO2) overnight. Novel peptides shown below were incubated with cells at concentration range of 10^−7 to 10^−9 M (except DT71 at concentration range 10^−8 to 10^−10 M). Each concentration was plated in triplicates. 20 μl of medium alone was added to control wells while wells without cells served as blanks. A total volume of 200 μl was ensured in each well and plate was left in incubator (37° C., 5% CO2). After 72 hours of incubation an MTT assay was performed and percentage inhibition in proliferation of treated cells was calculated with respect to control cells.

[2] = tested on: endothelial cells ECV.304; assay: Migration assay across 8 μm polycarbonate filter transwell inserts; conditions: analog at optimum concentration −8M, 24 hours (Table 4)
Experimental: Polycarbonate filter transwell inserts (24 well size) with 8 μm pores (Nunc, Denmark) were used for the migration assay. ECV304 (10^4 cells/200 ul DMEM containing 0.1% BSA) was added to the upper chamber. The lower chamber contained 600 ul of DMEM with 0.1% BSA. Individual peptides of the composition MuJ-7 at six different concentrations each of N/100, N/10, N, 10N, 100N and 1000N were added directly to the upper well and the plate incubated at 37° C. for 24 hours. The cells migrated to the lower chamber were viewed randomly at five different phase-contrast microscopic fields and the total number of cells counted using Video Pro 32 Image Analysis system. Percent inhibition in migration was determined with reference to the Control. Similarly, […] different concentrations of N/100, N/10, N, 10N, 100N and 1000N of MuJ-7 were added directly to the upper well and the plate incubated at 37° C. for 24 hours. The cells migrated to the lower chamber were counted as described above.
Polycarbonate filter trasnwell inserts (24 well size) with 8 μm pores (Nuno, Denmark) were used for the migration assay. ECV304 (10^4 cells/200 ul DMEM containing 0.1% BSA) was added to the upper chamber. The lower chamber contained 600 ul of DMEM with 0.1% BSA. […] The sequence of each of the peptides added are described above. The cells migrated to the lower chamber were viewed randomly at five different phase-contrast microscopic fields and the total number of cells counted using Video Pro 32 Image Analysis system. Percent inhibition in migration was determined with reference to Control. […]

[3] = tested on: ECV304; assay: Tube-like-structure (TLS) formation on Matrigel; conditions: peptide −8M, 24 hours
Experimental: Matrigel (350 ul) was placed into each well of a 24-well culture plate at 4° C. and was allowed to polymerize by incubation at 37° C. for 30 min. ECV304 (1.5×10^4) were seeded on the Matrigel in 500 ul DMEM supplemented with 10% FBS. MuJ-7 at four different concentrations of 0.25×, 0.5×, ×, & 5.0× were added and. the plate incubated at 37° C. for 24 hour. “×” denotes normal concentration of MuJ-7 where molar concentration of individual peptides was 10^−8 M for VIP2, BOM1, SP1, VIP3 and SOM2 and 10^−7 M for VIP1 and 10^−9 M for SOM1. […] Percent inhibition in tube area was determined with reference to untreated cells.
Matrigel (350 ul) was placed into each well of a 24-well culture plate at 4° C. and was allowed to polymerize by incubation at 37° C. for 30 min. ECV304 (1.5×10^4) were seeded on the Matrigel in 500 ul DMEM supplemented with 10% FBS. […] Percent inhibition in tube length was determined with reference to untreated cells.
Matrigel (350 ul) was placed into each well of a 24-well culture plate at 4° C. and was allowed to polymerize by incubation at 37° C. for 30 min. ECV304 (1.5×10^4) were seeded on the Matrigel in 500 ul DMEM supplemented with 10% FBS. Individual peptides of the composition MuJ-7 at three different concentrations each of N/10, N, and 10N were added and the plate incubated at 37° C. for 24 hours. […] Percent inhibition in tube length was determined with reference to Control. Similarly, three different concentrations of N/10, N, and 10N of MuJ-7 were added to the well and the plate incubated at 37° C. for 24 hours. Percent inhibition in tube length was determined with reference to Control as described previously (Table 10).

| Substance | PERCENT INHIBITION OF PROLIFERATION ([1]; ECV304, 10^−7M) | PERCENT INHIBITION OF PROLIFERATION ([1]; ECV304, 10^−8M) | PERCENT INHIBITION OF PROLIFERATION ([1]; ECV304, 10^−9M) | PERCENT INHIBITION MIGRATION [2] | INHIBITION OF TUBE LENGTH [3] |
| --- | --- | --- | --- | --- | --- |
| Leu-Met-Tyr-Pro-Thr-D-Tyr-Leu-Lys-OH (LMYPT[dY]LK-OH; N-terminus assumed; SMILES CSCC[C@H](NC(=O)[C@@H](N)CC(C)C)C(=O)N[C@@H](Cc1ccc(O)cc1)C(=O)N1CCC[C@H]1C(=O)N[C@H](C(=O)N[C@H](Cc1ccc(O)cc1)C(=O)N[C@@H](CC(C)C)C(=O)N[C@@H](CCCCN)C(=O)O)[C@@H](C)O) [DT-13] | 22.6% | 20.3% | 18.4% | 89.7% | 16.2% |
| Leu-Met-Tyr-Pro-Thr-Tyr-D-Leu-Lys-OH (LMYPTY[dL]K-OH; N-terminus assumed; SMILES CSCC[C@H](NC(=O)[C@@H](N)CC(C)C)C(=O)N[C@@H](Cc1ccc(O)cc1)C(=O)N1CCC[C@H]1C(=O)N[C@H](C(=O)N[C@@H](Cc1ccc(O)cc1)C(=O)N[C@H](CC(C)C)C(=O)N[C@@H](CCCCN)C(=O)O)[C@@H](C)O) [DT-14] | 17.0% | 6.0% | 20.5% | 77.3% | 24.3% |
| [dF]QWAV[Aib]HI-NH2 [DT-27] | 14.3% | 11.9% | 6.7% | 0% | 29.7% |
| [dF]QWAV[Aib]HL-NH2 [DT-24] | 6.4% | 9.8% | 10.7% | 0% | 16.2% |
| [dL]MQWF[Aib]-NH2 [DT-33] | 8.7% | 15.8% | 13.9% | 41.4% | 13.5% |
| [dR]PKP[Aib]Q[dW]F[dW][Aib]L-NH2 [DT-34] | 12.1% | 15.6% | 14.3% | 53.6% | 0% |
